From patent US4025649A, “Acetic acid derivatives having pharmacological activity and compositions containing the same” (priority 1975, dated 1977)

Columns and labels:
[1] = test system: pentylenetetrazol-induced seizure; assay: Anticonvulsant activity: pentylenetetrazol-induced seizure; assay type: in vivo; conditions: for % of protection: i.p. 15 min before 125 mg/kg pentylenetetrazol i.p., deaths noted at 3 hours, dose mg/kg: A 160, B 175, C 185, F 185, G 175; for anticonvulsant activity compared with sodium di-n-propylacetate / duration of anticonvulsant action compared with sodium di-n-propylacetate: pentylenetetrazol test
Method: This test is carried out on mice with a view to determining whether the compounds of this invention, when given preventively by intraperitoneal route, are capable at certain doses of protecting some of the animals against the epileptic seizure produced by an adequate and predetermined dose of pentylenetetrazol which would be 100% fatal in the absence of the compound.
The test was carried out on batches of 10 mice. Each batch of animals received an intraperitoneal dose of the compound to be studied so that each batch received a higher dose than the preceding batch. Fifteen minutes after administration of the compound to be tested, the animals were each given 125 mg/kg of pentylenetetrazol by intraperitoneal route. The percentage of deaths was noted 3 hours after injection of this latter compound and the result was expressed as a percentage of protection.

[2] = test system: γ-aminobutyric α-ketoglutaric transaminase (GABA T); assay: Inhibition of GABA T in vitro (coupled spectrophotometric test with GABASE); assay type: biochemical, Pseudomonas fluorescens; conditions: comparison of Ki with sodium di-n-propylacetate (0.8 m mol/ml)
Method: This test was undertaken "in vitro" in the absorption cell of a double-beam U.V. spectrophotometer.
The activity of GABA T was measured by following the reduction rate (v) of NADP^+ which corresponds to the evolution of the optical density at 340 mμ on the spectrophotometer.
Determination of the activity rate of GABA T by the principle hereabove described can be effected with either limiting concentrations or a saturating concentration of one of the substrates, in the present case GABA, in each instance, in the presence of a saturating concentration of the second substrate namely α-ketoglutarate.
This effectiveness is represented by the constant Ki or constant of inhibition which determines the affinity of the enzyme (GABA T) for the inhibitor.
This constant is expressed in units of concentration, in the present case, in m mol per ml and can be determined by plotting all the curves corresponding to 1/v = f (I) for a saturating concentration of GABA and for different limiting concentrations of GABA.
The following experimental procedure was used:
In the absorption cell (optical passage: 1 cm, volume: about 1 ml) the following solutions were introduced.
0.5 ml of a 1.5 molar solution of sodium sulphate
0.05 ml of a molar buffer solution of pH = 7.9
0.05 ml of a 0.1 molar solution of mercapto-ethanol
0.05 ml of a 20 mg/ml solution of NADP^+
0.125 ml of a solution of GABA
0.03 ml of a 40 mg/ml solution of GABASE (namely a bacterial enzyme isolated from Pseudomonas fluorescens containing a mixture of γ-aminobutyric α-ketoglutaric transaminase and succinosemialdehyde dehydrogenase).
0.125 ml of a solution of the compound to be studied.
If the compound of the invention was in the form of a water-insoluble acid, its sodium salt was used after adjustment to a pH of about 7.9 by adding a titrated solution of sodium hydroxide.
Different measurements of optical density were effected by varying the concentration of GABA and the concentration of the compound under study. Control assays were also effected by replacing the solution of the compound to be studied by 0.125 ml of water.
The content of the absorption cell was allowed to incubate for 10 minutes at 30° C. and then the enzymatic reaction was started by adding 0.1 ml of a 0.02 molar solution of α-ketoglutarate in the absorption cell. The final volume was 1.03 ml. The reaction was then followed by spectrophotometric recording of the reduction rate of the NADP^+ at 340 mμ and at 30° C. The optical density was automatically registered every 30 seconds.

[3] = in vivo; conditions: ip, mouse, intraperitoneal route
[4] = test system: anoxic seizure induced by gallamine triiodoethylate; assay: Antianoxic activity: anoxic seizure induced by gallamine triiodoethylate; assay type: in vivo, mouse; conditions: mice; for antianoxic activity compared with sodium di-n-propylacetate: at the doses studied in Table II
Method: The injection of a sufficient dose of a synthetic curariform substance such as gallamine triiodoethylate provokes in the mouse paralysis of the diaphragm. The animal then dies through asphyxia.
An intraperitoneal dose of the compound to be studied was administered to batches of 20 mice five minutes before the administration of 16 mg/kg of gallamine triiodoethylate by intraperitoneal route. The dose of the compound to be tested was calculated so that each batch received a higher dose than the preceding batch.
The period of time of survival was registered by controlling cardiac arrest by means of an electrocardiogram.
Under these conditions, an antianoxic effect produces an increase in the period of survival of the animal.

[5] = test system: pentylenetetrazol-induced seizure; assay: Anticonvulsant activity: pentylenetetrazol-induced seizure; assay type: in vivo; conditions: mice; for % of the animals still protected one hour after administration: 195 mg/kg of Compound B, 210 mg/kg of Compound C
[6] = Solubility of the isolated acid; assay type: physicochemical; conditions: free acid
Description: In this manner, 9.6 g of 3-n-propyl-hexanoic acid were obtained in the form of a colourless, slightly viscous liquid, insoluble in water and soluble in the organic solvents.

[7] = i.p. 5 min before 16 mg/kg gallamine triiodoethylate i.p., dose mg/kg: A 360, D 250, E 150, F 210, G 355
[8] = mice, 195 mg/kg of Compound B, 210 mg/kg of Compound C

CCCCC(CCCC)CC(=O)O [Compound F, 3-n-Butyl-heptanoic acid]
% of protection ([1]; mice): 95%
anticonvulsant activity compared with sodium di-n-propylacetate ([1]; mice): more active
activity as GABA T inhibitor compared with sodium di-n-propylacetate [2]: slightly less active
LD50 [3]: 300 mg/kg
antianoxic activity compared with sodium di-n-propylacetate [4]: slightly more active
% of increase in the period of survival in comparison with the controls [4, 7]: 29%

CCCC(=CC(=O)O)CCC [Compound G, 3-n-Propyl-2-hexenoic acid]
% of protection ([1]; mice): 75%
activity as GABA T inhibitor compared with sodium di-n-propylacetate [2]: more active
antianoxic activity compared with sodium di-n-propylacetate [4]: slightly more active
% of increase in the period of survival in comparison with the controls [4, 7]: 50%

CCCC(CCC)C(=O)[O-].[Na+] [sodium di-n-propylacetate, reference compound]
% of animals protected against the pentylenetetrazol-induced seizure ([1]; mice, 250 mg/kg, same conditions): 100%
% of increase in the period of survival in comparison with the controls ([4]; 330 mg/kg, same conditions (i.p. 5 min before 16 mg/kg gallamine triiodoethylate i.p.)): 40%
% protection of the animals one hour after administration ([5]; 250 mg/kg): 20%

CCCC(CCC)CC(=O)O [Compound A, 3-n-Propyl-hexanoic acid]
solubility in the organic solvents ([6]; organic solvents): soluble
solubility in water ([6]; water): insoluble
% of protection ([1]; mice): 100%
anticonvulsant activity compared with sodium di-n-propylacetate ([1]; mice): more active
% protection against the pentylenetetrazol-induced seizure ([1]; mice, 105 mg/kg by intraperitoneal route): 85%
activity as GABA T inhibitor compared with sodium di-n-propylacetate [2]: more active
LD50 [3]: 500 mg/kg
MTD ([3]; read-out: LDO, maximum tolerated dose (M.T.D.), highest dose which provokes no deaths): > 400 mg/kg
antianoxic activity compared with sodium di-n-propylacetate [4]: slightly more active
% of increase in the period of survival in comparison with the controls [4, 7]: 60%

CC(C)CC(=O)O [Compound D, 3-methyl-butanoic acid]
antianoxic activity compared with sodium di-n-propylacetate [4]: appreciably more active
% of increase in the period of survival in comparison with the controls [4, 7]: 73%

CCC(CC)CC(=O)O [Compound E, 3-ethyl-pentanoic acid]
antianoxic activity compared with sodium di-n-propylacetate [4]: appreciably more active
% of increase in the period of survival in comparison with the controls [4, 7]: 59%

CCCC(CCC)CCC(=O)O [Compound B, 4-n-Propyl-heptanoic acid]
% of protection ([1]; mice): 85%
duration of anticonvulsant action compared with sodium di-n-propylacetate ([1]; mice): longer period of time
% protection against the pentylenetetrazol-induced seizure [1, 8]: about 100%
activity as GABA T inhibitor compared with sodium di-n-propylacetate [2]: slightly less active
LD50 [3]: 350 mg/kg
% of the animals still protected one hour after administration [5]: 40%

CCCC(CCC)CCCC(=O)O [Compound C, 5-n-Propyl-octanoic acid]
% of the mice protected against the pentylenetetrazol-induced seizure ([1]; 125 mg/kg by intraperitoneal route): 65%
% of protection ([1]; mice): 85%
duration of anticonvulsant action compared with sodium di-n-propylacetate ([1]; mice): longer period of time
% protection against the pentylenetetrazol-induced seizure [1, 8]: about 100%
LD50 [3]: 350 mg/kg
% of the animals still protected one hour after administration [5]: 70%
